≈ marks a conversion by molar mass, not a printed value. Each block holds one compound with its values, some of them ahead of it.
Experiments:
Assay type in all cases: cell-based
S. aureus MP-12 = test: Broth dilution MIC determination (CLSI), S. aureus MP-12; conditions: Staphylococcus aureus, MP12; strain MP-12, broth dilution
E. coli MP-4 = test: Broth dilution MIC determination (CLSI), E. coli MP-4; conditions: Escherichia coli, MP4; strain MP-4, broth dilution; read-out: MIC E. coli MP-4
K. pneumoniae MP-546 = test: Broth dilution MIC determination (CLSI), K. pneumoniae MP-546; conditions: Klebsiella pneumoniae, MP546; strain MP-546, broth dilution
P. aeruginosa MP-3 = test: Broth dilution MIC determination (CLSI), P. aeruginosa MP-3; conditions: Pseudomonas aeruginosa, MP3; strain MP-3, broth dilution
A. baumannii MP-15 = test: Broth dilution MIC determination (CLSI), A. baumannii MP-15; conditions: Acinetobacter baumannii, MP15; strain MP-15, broth dilution; read-out: MIC A. baumanii MP-15

SMILES: CO[C@]1(C)C[C@@H](C)CN(C)[C@@H]([C@H]2CC[C@H](N(C)C(=O)CNC3CC3)CC2)COC(=O)C(C)(C)C(=O)[C@H](C)[C@H]1O[C@@H]1O[C@H](C)C[C@H](N(C)C)[C@H]1O [Compound 180, 2-(cyclopropylamino)-N-((1S,4r)-4-((3S,6R,8R,9R,10R)-9-(((2S,3R,4S,6R)-4-(dimethylamino)-3-hydroxy-6-methyltetrahydro-2H-pyran-2-yl)oxy)-8-methoxy-4,6,8,10,12,12-hexamethyl-11,13-dioxo-1-oxa-4-azacyclotridecan-3-yl)cyclohexyl)-N-methylacetamide]
MIC (S. aureus MP-12): > 32 µg/mL | MIC (E. coli MP-4): 4 to 32 µg/mL (≈ 5.64 to 45.1 µM) | MIC (K. pneumoniae MP-546): > 32 µg/mL | MIC (P. aeruginosa MP-3): > 32 µg/mL | MIC (A. baumannii MP-15): > 32 µg/mL

SMILES: CCN1C2CCC1CC([C@@H]1COC(=O)C(C)(C)C(=O)[C@H](C)[C@@H](O[C@@H]3O[C@H](C)C[C@H](N(C)C)[C@H]3O)[C@](C)(OC)C[C@@H](C)CN1C)C2 (stereo partly drawn) [Compound 15, (3R,6R,8R,9R,10R)-9-(((2S,3R,4S,6R)-4-(dimethylamino)-3-hydroxy-6-methyltetrahydro-2H-pyran-2-yl)oxy)-3-(8-ethyl-8-azabicyclo[3.2.1]octan-3-yl)-8-methoxy-4,6,8,10,12,12-hexamethyl-1-oxa-4-azacyclotridecane-11,13-dione]
MIC (S. aureus MP-12): 4 to 32 µg/mL (≈ 6.27 to 50.2 µM) | MIC (E. coli MP-4): < 4 µg/mL | MIC (K. pneumoniae MP-546): 4 to 32 µg/mL (≈ 6.27 to 50.2 µM) | MIC (P. aeruginosa MP-3): > 32 µg/mL | MIC (A. baumannii MP-15): > 32 µg/mL

SMILES: CO[C@]1(C)C[C@@H](C)CN(C)[C@@H]([C@H]2CCCN(C(=O)CN(C)C)C2)COC(=O)C(C)(C)C(=O)[C@H](C)[C@H]1O[C@@H]1O[C@H](C)C[C@H](N(C)C)[C@H]1O [Compound 34, (3S,6R,8R,9R,10R)-9-(((2S,3R,4S,6R)-4-(dimethylamino)-3-hydroxy-6-methyltetrahydro-2H-pyran-2-yl)oxy)-3-((S)-1-(dimethylglycyl)piperidin-3-yl)-8-methoxy-4,6,8,10,12,12-hexamethyl-1-oxa-4-azacyclotridecane-11,13-dione]
MIC (S. aureus MP-12): > 32 µg/mL | MIC (E. coli MP-4): 4 to 32 µg/mL (≈ 5.98 to 47.8 µM) | MIC (K. pneumoniae MP-546): > 32 µg/mL | MIC (P. aeruginosa MP-3): > 32 µg/mL | MIC (A. baumannii MP-15): > 32 µg/mL

SMILES: CO[C@]1(C)C[C@@H](C)CN(C)[C@H](C2CN(CC(=O)NC(C)C)C2)COC(=O)C(C)(C)C(=O)[C@H](C)[C@H]1O[C@@H]1O[C@H](C)C[C@H](N(C)C)[C@H]1O [Compound 36, 2-(3-((3R,6R,8R,9R,10R)-9-(((2S,3R,4S,6R)-4-(dimethylamino)-3-hydroxy-6-methyltetrahydro-2H-pyran-2-yl)oxy)-8-methoxy-4,6,8,10,12,12-hexamethyl-11,13-dioxo-1-oxa-4-azacyclotridecan-3-yl)azetidin-1-yl)-N-isopropylacetamide]
MIC (S. aureus MP-12): > 32 µg/mL | MIC (E. coli MP-4): 4 to 32 µg/mL (≈ 6.11 to 48.9 µM) | MIC (K. pneumoniae MP-546): 4 to 32 µg/mL (≈ 6.11 to 48.9 µM) | MIC (P. aeruginosa MP-3): > 32 µg/mL | MIC (A. baumannii MP-15): > 32 µg/mL

Continued, values first:

MIC (S. aureus MP-12): > 32 µg/mL | MIC (E. coli MP-4): 4 to 32 µg/mL (≈ 6.39 to 51.1 µM) | MIC (K. pneumoniae MP-546): 4 to 32 µg/mL (≈ 6.39 to 51.1 µM) | MIC (P. aeruginosa MP-3): > 32 µg/mL | MIC (A. baumannii MP-15): > 32 µg/mL
SMILES: CO[C@]1(C)C[C@@H](C)CN(C)[C@H]([C@@H]2CCCN(C(C)C)C2)COC(=O)C(C)(C)C(=O)[C@H](C)[C@H]1O[C@@H]1O[C@H](C)C[C@H](N(C)C)[C@H]1O [Compound 90, (3R,6R,8R,9R,10R)-9-(((2S,3R,4S,6R)-4-(dimethylamino)-3-hydroxy-6-methyltetrahydro-2H-pyran-2-yl)oxy)-3-((R)-1-isopropylpiperidin-3-yl)-8-methoxy-4,6,8,10,12,12-hexamethyl-1-oxa-4-azacyclotridecane-11,13-dione]

MIC (S. aureus MP-12): 4 to 32 µg/mL (≈ 6.39 to 51.1 µM) | MIC (E. coli MP-4): < 4 µg/mL | MIC (K. pneumoniae MP-546): 4 to 32 µg/mL (≈ 6.39 to 51.1 µM) | MIC (P. aeruginosa MP-3): > 32 µg/mL | MIC (A. baumannii MP-15): > 32 µg/mL
SMILES: CCN1C[C@H](C)C[C@@](C)(OC)[C@H](O[C@@H]2O[C@H](C)C[C@H](N(C)C)[C@H]2O)[C@@H](C)C(=O)C(C)(C)C(=O)OC[C@H]1C1CN(CC(C)C)C1 [Compound 70, (3R,6R,8R,9R,10R)-9-(((2S,3R,4S,6R)-4-(dimethylamino)-3-hydroxy-6-methyltetrahydro-2H-pyran-2-yl)oxy)-4-ethyl-3-(1-isobutylazetidin-3-yl)-8-methoxy-6,8,10,12,12-pentamethyl-1-oxa-4-azacyclotridecane-11,13-dione]

MIC (S. aureus MP-12): > 32 µg/mL | MIC (E. coli MP-4): < 4 µg/mL | MIC (K. pneumoniae MP-546): 4 to 32 µg/mL (≈ 6.54 to 52.3 µM) | MIC (P. aeruginosa MP-3): > 32 µg/mL | MIC (A. baumannii MP-15): > 32 µg/mL
SMILES: CO[C@]1(C)C[C@@H](C)CN(C)[C@@H](C2CN(CC(C)C)C2)COC(=O)C(C)(C)C(=O)[C@H](C)[C@H]1O[C@@H]1O[C@H](C)C[C@H](N(C)C)[C@H]1O [Compound 81, (3S,6R,8R,9R,10R)-9-(((2S,3R,4S,6R)-4-(dimethylamino)-3-hydroxy-6-methyltetrahydro-2H-pyran-2-yl)oxy)-3-(1-isobutylazetidin-3-yl)-8-methoxy-4,6,8,10,12,12-hexamethyl-1-oxa-4-azacyclotridecane-11,13-dione]

MIC (S. aureus MP-12): > 32 µg/mL | MIC (E. coli MP-4): 4 to 32 µg/mL (≈ 5.86 to 46.9 µM) | MIC (K. pneumoniae MP-546): > 32 µg/mL | MIC (P. aeruginosa MP-3): > 32 µg/mL | MIC (A. baumannii MP-15): > 32 µg/mL
SMILES: CO[C@]1(C)C[C@@H](C)CN(C)[C@H](C2CCN(C(=O)CN(C)C)CC2)[C@H](C)OC(=O)C(C)(C)C(=O)[C@H](C)[C@H]1O[C@@H]1O[C@H](C)C[C@H](N(C)C)[C@H]1O [Compound 159, (2S,3R,6R,8R,9R,10R)-9-(((2S,3R,4S,6R)-4-(dimethylamino)-3-hydroxy-6-methyltetrahydro-2H-pyran-2-yl)oxy)-3-(1-(dimethylglycyl)piperidin-4-yl)-8-methoxy-2,4,6,8,10,12,12-heptamethyl-1-oxa-4-azacyclotridecane-11,13-dione]

MIC (S. aureus MP-12): 4 to 32 µg/mL (≈ 6.85 to 54.8 µM) | MIC (E. coli MP-4): < 4 µg/mL | MIC (K. pneumoniae MP-546): < 4 µg/mL | MIC (P. aeruginosa MP-3): > 32 µg/mL | MIC (A. baumannii MP-15): > 32 µg/mL
SMILES: CO[C@]1(C)C[C@@H](C)CN(C)[C@@H]([C@@H]2CCCNC2)COC(=O)C(C)(C)C(=O)[C@H](C)[C@H]1O[C@@H]1O[C@H](C)C[C@H](N(C)C)[C@H]1O [Compound 53]

MIC (S. aureus MP-12): > 32 µg/mL | MIC (E. coli MP-4): > 32 µg/mL | MIC (K. pneumoniae MP-546): > 32 µg/mL | MIC (P. aeruginosa MP-3): > 32 µg/mL | MIC (A. baumannii MP-15): > 32 µg/mL
SMILES: CCC[N+]1(C)CC=C([C@H]2[C@@H](C)OC(=O)C(C)(C)C(=O)[C@H](C)[C@@H](O[C@@H]3O[C@H](C)C[C@H](N(C)C)[C@H]3O)[C@](C)(OC)C[C@@H](C)CN2C)CC1 (stereo partly drawn) [Compound 4, 4-((2R,3S,6R,8R,9R,10R)-9-(((2S,3R,4S,6R)-4-(dimethylamino)-3-hydroxy-6-methyltetrahydro-2H-pyran-2-yl)oxy)-8-methoxy-2,4,6,8,10,12,12-heptamethyl-11,13-dioxo-1-oxa-4-azacyclotridecan-3-yl)-1-methyl-1-propyl-1,2,3,6-tetrahydropyridin-1-ium]

MIC (S. aureus MP-12): 4 to 32 µg/mL (≈ 6.39 to 51.1 µM) | MIC (E. coli MP-4): < 4 µg/mL | MIC (K. pneumoniae MP-546): < 4 µg/mL | MIC (P. aeruginosa MP-3): > 32 µg/mL | MIC (A. baumannii MP-15): > 32 µg/mL
SMILES: CCCN1CCC([C@H]2COC(=O)C(C)(C)C(=O)[C@H](C)[C@@H](O[C@@H]3O[C@H](C)C[C@H](N(C)C)[C@H]3O)[C@](C)(OC)C[C@@H](C)CN2C)CC1 [Compound 63, (3S,6R,8R,9R,10R)-9-(((2S,3R,4S,6R)-4-(dimethylamino)-3-hydroxy-6-methyltetrahydro-2H-pyran-2-yl)oxy)-8-methoxy-4,6,8,10,12,12-hexamethyl-3-(1-propylpiperidin-4-yl)-1-oxa-4-azacyclotridecane-11,13-dione]
